Assay: Solubility at room temperature
Type: physicochemical

C=C1[C@H](CO)[C@@H](O)C[C@@H]1n1cnc2c(=O)[nH]c(N)nc21 [crystalline form of entecavir]
Solubility in N,N-dimethylformamide (N. N-dimethylformamide): sparingly soluble | Solubility in dimethyl sulfoxide (dimethyl sulfoxide): soluble | Solubility in ethanol (ethanol): slightly soluble | Solubility in water (water): insoluble

From patent US8937076B2, “Crystalline form of entecavir, its preparation and the pharmaceutical composition and uses thereof” (Zhejiang Medicine Co., Ltd. Xinchang Pharaceutical Factory, priority 2007, dated 2015)
